Data from patent US6673039B1, “Compositions, kits, methods, and apparatus for transvascular delivery of a composition to an extravascular tissue of a mammal” (Trustees of the University of Pennsylvania, priority 1997, dated 2004).

System: skeletal muscle capillaries
Experiment: Microvascular perfusion viewed in real time through a dissecting microscope after topical application
Format: in vivo, mouse
From the text: Newborn mice pups were anesthetized after feeding to ensure a stomach filled with milk, for the purpose of providing optical contrast. […] Histamine, papaverine, or both, dissolved in PBS, were applied topically to the capillaries. Video recordings were made against a time line with an attached camera.

## COc1ccc(Cc2nccc3cc(OC)c(OC)cc23)cc1OC [papaverine]
300 micrograms per milliliter
  effect on microvascular perfusion: capillary recruitment and increased local perfusion

## NCCc1c[nH]cn1 [histamine]
10 millimolar
  effect on microvascular perfusion: rapidly induced vasodilation, and was followed within seconds by progressive capillary stasis
